From patent US20250034118A1, “ANTIMALARIAL HEXAHYDROPYRIMIDINE DERIVATIVES” (UCB BIOPHARMA SRL, priority 2021, published 2025)
Counter-ions that a name gives are not always drawn. Like-named read-outs stand apart in the source and are kept apart here.

System: Plasmodium falciparum 3D7 strain
Test: P. falciparum 3D7 asexual blood stage assay (SYBR green readout)
Type: cell-based
Source text: The compounds of the present invention are potent inhibitors of the growth and propagation of the Plasmodium falciparum parasite in human blood.
The assay used to measure the effect of test compounds on a bloodstream stage of Plasmodium falciparum 3D7 strain employs SYBR green as the readout. This is a dye that binds to double stranded deoxyribonucleic acid (DNA) with a resulting increase in fluorescence, allowing detection of P. falciparum DNA in infected erythrocytes, and thereby providing a measure of parasite growth and propagation.
Erythrocytes (A+ blood) were prepared for both parasite culture and assay by washing 4 times with incomplete media (15.9 g RPMI 1640 (25 mM HEPES, L-glutamine), 1 g NaHCO3, 2 g glucose, 400 μL gentacin (500 mg/mL), 2 mL hypoxanthine solution (13.6 g/L in 0.1M NaOH pH 7.3) in 1 litre of media). The cells were centrifuged at 1800 g for 5 minutes, before decanting the supernatant and re-suspending in fresh incomplete media. On the final wash, the cells were re-suspended in complete media (incomplete media with 5 g/L AlbumaxII), and centrifuged at 1800 g for 3 minutes. This cell sediment was treated as 100% haematocrit.
P. falciparum 3D7 was cultured in erythrocytes at 5% haematocrit in complete media at 37° C. (1% O2, 3% CO2, balance N2). […]
On day 5, fluorescent signal was measured using a BioTek plate reader (excitation 485 nm, emission 528 nm). […]

Row | IC50 (Erythrocyte, P. falciparum 3D7 in erythrocytes, 5% haematocrit, 0.5% parasitaemia, 72 h incubation, SYBR green fluorescence, read-out: IC50) | Compound | IC50 (3D7, Erythrocyte, 72 h)
1 | 5 nM | C[C@@H]1C[C@H](N2C(=N)N[C@](C)(c3cccc(NC(=O)c4cncn4CC(F)(F)F)c3Cl)CC2=O)CCC1(F)F [Example 1, N-(2-Chloro-3-{(4S)-1-[(1R,3R)-4,4-difluoro-3-methylcyclohexyl]-2-imino-4-methyl-6-oxohexahydropyrimidin-4-yl}phenyl)-3-(2,2,2-trifluoroethyl)imidazole-4-carboxamide] | –
2 | – | CO[C@H]1C[C@@H](N2C(=N)N[C@](C)(c3cccc(NC(=O)c4cncn4CC(F)(F)F)c3Cl)CC2=O)CCC1(F)F (relative stereo) [Example 2, N-(2-Chloro-3-{(4S)-1-[(1S*, 3S*)-4,4-difluoro-3-methoxycyclohexyl]-2-imino-4-methyl-6-oxohexahydropyrimidin-4-yl}phenyl)-3-(2,2,2-trifluoroethyl)imidazole-4-carboxamide hydrochloride] | 4.2 nM
